Values of other authors as cited in patent US20230056424A1, “PREVENTION OF THE CONVERSION OF PHARMACEUTICAL AGENTS INTO TOXIC N-NITROSAMINE COMPOUNDS” (ALFRED E. TIEFENBACHER (GMBH & CO. KG), priority 2021, published 2023).

Conditions: standards established by the health authorities

O=NN1C[C@H]2C[C@@H](C1)c1cc3nccnc3cc12 [N-nitroso-varenicline]
maximum allowed daily intake: 37 ng/day
